Results reported in patent publication US10272088B2, “FAS inhibitors and methods associated therewith” (Wake Forest University Health Sciences, priority 2014, dated 2019).
“Also recorded” adds a separate entry of the source.

Assays:
[1] = Solubility/aggregation of ICG in PBS
[2] = cited from earlier work
[3] = tested on: PC3 prostate, RKO colorectal, and MDA-MB-231 breast cancer cells; assay: In vitro cytotoxicity, WST-8 assay; conditions: Nano-Orl (PBA ligand) dosed equivalent to 25 m Orlistat, 24 h + 24 h
Procedure: Media alone or containing experimental or control agents was refreshed after 24 h and allowed to incubate for 24 additional hours. Cytotoxicity was then evaluated using the WST-8 assay (Dojindo, Rockville, Md.).

PC3 cells = assay: Seahorse Mito Stress test, oxygen consumption rate; conditions: Orlistat 50 μM, 12 hours
Procedure: PC3 cells were seeded into 24-well XF analysis microplates. The cells were the treated with vehicle (•) or Orlistat (50 μM. ? ) for 12 hours before analysis, according to Seahorse protocols. Oxygen consumption rate (OCR), a measure of mitochondrial capacity, was determined using a Seahorse Mito Stress test on a Seahorse XF24 extracellular flux analyzer.

cells = assay: Cytotoxicity after pre-incubation in PBS (entrapment/hydrolytic stability); assay type: cell-based; conditions: pre-incubated in PBS prior to incubating with cells
FASN = FASN (Homo sapiens, UniProt P49327); assay: 14C-acetate incorporation study (FASN inhibition); conditions: PC3 cells
Sequence of FASN (P49327 whole entry): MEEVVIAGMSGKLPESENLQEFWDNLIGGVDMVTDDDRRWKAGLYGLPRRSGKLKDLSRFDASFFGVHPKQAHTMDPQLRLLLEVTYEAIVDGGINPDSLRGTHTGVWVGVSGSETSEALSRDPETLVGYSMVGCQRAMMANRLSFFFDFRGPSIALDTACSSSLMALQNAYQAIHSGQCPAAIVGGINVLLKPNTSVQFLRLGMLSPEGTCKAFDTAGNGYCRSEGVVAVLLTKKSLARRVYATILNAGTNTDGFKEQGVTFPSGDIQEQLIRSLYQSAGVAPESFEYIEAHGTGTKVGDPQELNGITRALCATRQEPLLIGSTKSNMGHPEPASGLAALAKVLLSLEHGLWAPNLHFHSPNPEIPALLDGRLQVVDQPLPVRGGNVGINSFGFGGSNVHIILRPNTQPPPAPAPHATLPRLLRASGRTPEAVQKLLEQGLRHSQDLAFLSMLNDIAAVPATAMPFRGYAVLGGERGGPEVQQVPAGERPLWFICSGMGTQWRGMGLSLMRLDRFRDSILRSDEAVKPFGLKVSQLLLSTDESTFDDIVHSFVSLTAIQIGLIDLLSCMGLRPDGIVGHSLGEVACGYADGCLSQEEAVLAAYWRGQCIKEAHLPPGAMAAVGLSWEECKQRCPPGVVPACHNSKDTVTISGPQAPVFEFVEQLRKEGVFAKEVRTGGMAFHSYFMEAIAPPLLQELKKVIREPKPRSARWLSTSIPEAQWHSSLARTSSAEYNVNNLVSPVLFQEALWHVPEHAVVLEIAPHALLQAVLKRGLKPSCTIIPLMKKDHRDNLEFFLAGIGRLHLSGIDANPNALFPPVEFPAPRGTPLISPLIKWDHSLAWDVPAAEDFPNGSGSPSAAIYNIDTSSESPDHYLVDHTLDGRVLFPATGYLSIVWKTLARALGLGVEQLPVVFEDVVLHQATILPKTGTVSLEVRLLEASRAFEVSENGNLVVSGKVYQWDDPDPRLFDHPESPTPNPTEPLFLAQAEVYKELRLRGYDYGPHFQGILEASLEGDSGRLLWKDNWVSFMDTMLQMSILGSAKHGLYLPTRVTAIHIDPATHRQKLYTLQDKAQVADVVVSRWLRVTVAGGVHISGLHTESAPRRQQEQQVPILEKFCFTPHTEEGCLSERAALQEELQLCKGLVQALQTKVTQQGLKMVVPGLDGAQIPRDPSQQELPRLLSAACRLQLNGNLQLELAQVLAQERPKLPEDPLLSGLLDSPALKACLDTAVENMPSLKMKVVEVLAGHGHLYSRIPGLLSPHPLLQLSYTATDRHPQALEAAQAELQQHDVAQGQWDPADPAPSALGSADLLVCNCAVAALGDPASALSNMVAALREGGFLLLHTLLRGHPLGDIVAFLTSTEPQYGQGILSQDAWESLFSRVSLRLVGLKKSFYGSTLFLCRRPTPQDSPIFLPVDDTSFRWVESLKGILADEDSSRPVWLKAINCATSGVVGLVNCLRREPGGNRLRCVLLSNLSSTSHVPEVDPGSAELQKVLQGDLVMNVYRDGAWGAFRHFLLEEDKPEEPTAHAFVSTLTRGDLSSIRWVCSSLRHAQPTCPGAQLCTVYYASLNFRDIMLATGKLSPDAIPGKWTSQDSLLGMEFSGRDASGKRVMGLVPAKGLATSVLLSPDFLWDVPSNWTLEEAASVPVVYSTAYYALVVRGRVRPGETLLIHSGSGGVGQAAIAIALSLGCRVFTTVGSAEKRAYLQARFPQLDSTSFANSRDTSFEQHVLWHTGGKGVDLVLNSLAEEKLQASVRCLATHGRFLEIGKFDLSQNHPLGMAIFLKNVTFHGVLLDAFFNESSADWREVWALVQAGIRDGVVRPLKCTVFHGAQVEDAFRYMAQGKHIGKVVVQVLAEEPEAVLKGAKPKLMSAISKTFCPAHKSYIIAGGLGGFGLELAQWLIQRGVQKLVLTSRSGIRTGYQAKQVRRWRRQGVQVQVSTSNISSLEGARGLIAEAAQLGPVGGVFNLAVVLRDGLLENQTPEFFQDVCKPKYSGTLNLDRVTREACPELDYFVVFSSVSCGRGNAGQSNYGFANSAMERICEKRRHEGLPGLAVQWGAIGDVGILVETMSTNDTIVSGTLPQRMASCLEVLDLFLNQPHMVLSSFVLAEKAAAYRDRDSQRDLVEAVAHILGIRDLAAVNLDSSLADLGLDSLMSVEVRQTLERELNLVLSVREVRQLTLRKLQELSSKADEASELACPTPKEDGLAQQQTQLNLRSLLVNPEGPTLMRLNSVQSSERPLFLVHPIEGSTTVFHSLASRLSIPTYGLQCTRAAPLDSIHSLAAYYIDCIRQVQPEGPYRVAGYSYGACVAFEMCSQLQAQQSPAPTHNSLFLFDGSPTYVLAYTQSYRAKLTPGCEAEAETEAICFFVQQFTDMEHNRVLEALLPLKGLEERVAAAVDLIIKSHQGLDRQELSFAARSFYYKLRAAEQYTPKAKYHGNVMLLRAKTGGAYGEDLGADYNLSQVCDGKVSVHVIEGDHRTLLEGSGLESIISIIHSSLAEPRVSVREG
Procedure: Next, 1 μCi of ^14C-acetate will be added to the cells and be incubated for an additional 2 h. After washing cells with PBS/EDTA, the fatty acids will be extracted with chloroform/methanol (1:1) and quantified by scintillation counting using standard protocols.

CC1(C)C(/C=C/C=C/C=C/C=C2\N(CCCCS(=O)(=O)O)c3ccc4ccccc4c3C2(C)C)=[N+](CCCCS(=O)(=O)[O-])c2ccc3ccccc3c21 [ICG, indocyanine green]
solubility in PBS [1]: not soluble in PBS; also recorded: rapidly aggregates in PBS

CCCCCCCCCCC[C@@H](C[C@@H]1OC(=O)[C@H]1CCCCCC)OC(=O)[C@H](CC(C)C)NC=O [Orlistat]
tumor growth in vivo ([2]; compared to a sham control): inhibits tumor growth in vivo | bioavailability ([2]; in vivo): poor bioavailability | viability relative to the NP vehicle media control [3]: consistent with free Orlistat | mitochondrial capacity (oxygen consumption rate) (PC3 cells): decreases mitochondrial capacity; also recorded: negatively impacts mitochondrial capacity | cytotoxicity after pre-incubation in PBS (cells): rendered ineffective; also recorded: dramatically reduces its efficacy

CCCCCCCCCCCCCCOc1ccc(C(=O)O)o1 [TOFA]
14C-acetate incorporation into lipids (FASN inhibition) (FASN): inhibited FASN mediated incorporation of acetate in lipids
